Assay results as given in patent publication US20220409727A1, “Metal Complexes Bearing Bisstyryl-Bipyridine Ligand and Their Use as Photosensitizer Agent in One and Two-Photon Photodynamic Therapy” (Paris Sciences et Lettres, priority 2019, published 2022).
Like-named read-outs stand apart in the source and are kept apart here.

Tests used:
[1] = Singlet oxygen measurement, direct evaluation (1O2 luminescence at 1270 nm); assay type: physicochemical
Description: The samples were prepared in an air saturated CH3CN or D2O solution with an absorbance of 0.2 at 450 nm. This solution was irradiated in fluorescence quartz cuvettes (width 1 cm) using a mounted M450LP1 LED (Thorlabs) whose irradiation, centered at 450 nm, has been focused with aspheric condenser lenses. The intensity of the irradiation has been varied using a T-Cube LED Driver (Thorlabs) and measured with an optical power and energy meter. The emission signal was focused and collected at right angle to the excitation pathway and directed to a Princeton Instruments Acton SP-2300i monochromator. A longpass glass filter was placed in front of the monochromator entrance slit to cut off light at wavelengths shorter than 850 nm. As a detector an EO-817L IR-sensitive liquid nitrogen cooled germanium diode detector (North Coast Scientific Corp.) has been used. The singlet oxygen luminesce at 1270 nm was measured by recording spectra from 1100 to 1400 nm. For the data analysis, the singlet oxygen luminescence peaks at different irradiation intensities were integrated. The resulting areas were plotted against the percentage of the irradiation intensity and the slope of the linear regression calculated. The absorbance of the sample was corrected with an absorbance correction factor. As reference for the measurement Rose Bengal (Φ=76%) (Kochevar, I. E. and Redmond, R. W., 2000) was used and the singlet oxygen quantum yields were calculated using the following formula:
Φsample=Φreference*(Ssample/Sreference)*(Ireference/Isample)
Φ=singlet oxygen quantum yield, S=slope of the linear regression of the plot of the areas of the singlet oxygen luminescence peaks against the irradiation intensity, I=absorbance correction factor, […] of the irradiation source, A=absorbance of the sample at irradiation wavelength.

[2] = test system: human glioblastoma astrocytoma (U373) cells; assay: (Photo-)cytotoxicity on 2D cell monolayers, resazurin assay, U373; details: for PI (480 nm): U373, dark vs 480 nm (10 min, 3.1 J/cm^2); for PI (540 nm): U373, dark vs 540 nm (40 min, 9.5 J/cm^2); for IC50: compounds 1-3 as chloride salts
[3] = Luminescence quantum yield measurements; assay type: physicochemical; design: key: fraction, relative to [Ru(bipy)3]Cl2 reference in CH3CN (Φem=5.9%); details: CH3CN, room temperature, excitation at 355 nm
Description: For the determination of the luminescence quantum yield, the samples were prepared in an CH3CN solution with an absorbance of 0.1 at 355 nm. This solution was irradiated in fluorescence quartz cuvettes (width 1 cm) using a NT342B Nd-YAG pumped optical parametric oscillator (Ekspla) at 355 nm. The emission signal was focused and collected at right angle to the excitation pathway and directed to a Princeton Instruments Acton SP-2300i monochromator. As a detector a XPI-Max 4 CCD camera (Princeton Instruments) has been used. The luminescence quantum yields were determined by comparison with the reference [Ru(bipy)3]Cl2 in CH3CN (Φem=5.9%) (Nakamaru, K., 1982) applying the following formula:
Φem, sample=Φem, reference*(Freference/Fsample)*(Isample/Ireference)*(nsample/nreference)^2
Φem=luminescence quantum yield, F=fraction of light absorbed, I=integrated emission intensities, n=refractive index, A=absorbance of the sample at irradiation wavelength.

[4] = test system: SW620/AD300 (doxorubicin-selected P-gp-overexpressing human colon cancer cell) tumour-bearing nude mice; assay: In vivo PDT in tumour-bearing nude mice
Description: 6 weeks age nu/nu female mice were purchased from Charles River. Compound 7 was dissolved into physiological saline at first. Tumor xenograft: 6×10^6 SW620/AD300 cells were subcutaneously (s.c.) injected in the nude mice, the cells were suspension in 150 μL Matrigel (Corning) and saline (1:1, v/v). After a week, the tumor volumes of the mice reached approximately 80 mm^3.
30 SW620/AD300 nude tumour-bearing nude mice were randomly separated into 6 groups and five mice for each group.
Group 1: injected 7 (2 mg/Kg 50 μL) intravenously and irradiate under 800 nm laser (50 mW, 1 kHz, pulse width 35 fs, 5 s/mm) 1 h after injection;
Group 2: injected 7 (2 mg/Kg 50 μL) intravenously and irradiate under 500 nm light (10 mW/cm^2, 60 min);
Group 3: injected by physiological saline (50 μL) and treated with 800 nm laser (50 mW, 1 kHz, pulse width 35 fs, 5 s/mm) 1 h after injection;
Group 4: injected by physiological saline (50 μL) and treated with 500 nm light (10 mW/cm^2, 60 min);
Group 5: intravenous injected 7 (2 mg/Kg 50 μL);
Group 6: injected 50 μL physiological saline.
The mice were anesthetized by the injection of 4% chloral hydrate aqueous solution (0.2 mL/20 g) before treatment. The tumour volume and body weight were measured and record for each two days. Tumor volume was calculated by the following formula
After the treatment, the mice were euthanized. The tumour was collected and fixated by 4% paraformaldehyde, and then obtained as paraffin-embedded samples and stained with hematoxylin and eosin (H&E). A Carl Zeiss Axio Imager Z2 microscope was used to observe the tissue structure and cell state of the sections.

HeLa MCTS = assay: 3D multicellular tumor spheroids (MCTS) growth inhibition assay; assay type: cell-based, human; details: 20 μM, 1P (500 nm, 10 J/cm^2) or 2P (800 nm, 10 J/cm^2) irradiation on day 3
Description: autoclave. The hot emulsion was transferred into wells (50 μL per well) of a 96 cell culture well plate. The plates were exposed for 3 h to UV irradiation to ensure the sterility and allow the agarose solution to cool down. After this time, the agarose was overlayed with a HeLa cell suspension at a density of 3000 cells per well in 150 μL of media. The MCTS were cultivated and maintained at 37° C. in a cell culture incubator at 37° C. with 5% CO2 atmosphere. The culture media was replaced every two days. Within two-three days MCTs were formed from the cell suspension. The formation as well as integrity, diameter and volume of the MCTs was monitored by an Axio Observer Z1 (Carl Zeiss) phase contrast microscope. The volume was calculated using the following formula: V=4/3πr^3. The luminescence images along the z-axis were captured by a one-(λex=458 nm, λem=600-750 nm) or two-photon (λex=800 nm, λem=600-750 nm) excitation in the z-stack mode with a an LSM 880 (Carl Zeiss) laser scanning confocal microscope equipped with Argon and a Coherent Chameleon 2-Photon laser and a GaAsP detector.
MCTS were treated with the corresponding compounds (20 μM 1-7, 20 μM tetraphenylporphyrin H2TPP, 10 μM cisplatin, 30 μM cisplatin, 2% DMSO, v %) by replacing 50% of the media with drug supplemented media in the dark for three days. After this time, the MCTS were exposed to a two-photon irradiation (800 nm, 10 J/cm^2) with a section interval of 5 μm using a LSM 880 (Carl Zeiss) laser scanning confocal microscope equipped with a Coherent Chameleon 2-Photon laser. The cell culture media was replaced every two days. The integrity and diameter of the MCTs was monitored with an Axio Observer Z1 (Carl Zeiss) phase contrast microscope every 24 h.

[5] = read-out: IC50 480 nm (10 min, 3.1 J/cm^2), U373, irradiation 480 nm (10 min, 3.1 J/cm^2)
[6] = read-out: IC50 dark, U373, dark, 4 h incubation

Compound	Singlet oxygen quantum yield, direct 450 nm CH3CN [1] [%]	PI (480 nm) [2]	PI (540 nm) [2]	IC50 [2, 5] [µM]	IC50 [2, 6] [µM]	ϕem (Luminescence Quantum Yield) [3]	behaviour of treated animals ([4]; 2 mg/Kg intravenously)	tumour volume, PDT treated ([4]; 2 mg/Kg intravenously plus 2P irradiation at 800 nm or 1P irradiation at 500 nm, 15 days)	tumour volume, compound only ([4]; 2 mg/Kg intravenously, no irradiation)	volume of the MCTS after light irradiation (HeLa MCTS)
CN(C)c1ccc(/C=C/c2ccnc(-c3cc(/C=C/c4ccc(N(C)C)cc4)ccn3)c2)cc1.F[P-](F)(F)(F)(F)F.F[P-](F)(F)(F)(F)F.[Ru+2].c1ccc(-c2ccccn2)nc1.c1ccc(-c2ccccn2)nc1 [Compound 6, [Ru(bipy)2((E,E′)-4,4′-Bis[p-(N,N-dimethylamino)styryl]-2,2′-bipyridine)][PF6]2]	46	>12.0	>9.3	8.3 ± 1.1	> 100	0.005				
COc1ccc(C=Cc2ccnc(-c3cc(C=Cc4ccc(OC)cc4)ccn3)c2)cc1.F[P-](F)(F)(F)(F)F.F[P-](F)(F)(F)(F)F.[Ru+2].c1ccc(-c2ccnc3c2ccc2c(-c4ccccc4)ccnc23)cc1.c1ccc(-c2ccnc3c2ccc2c(-c4ccccc4)ccnc23)cc1 [Compound 11, [Ru(4,7-Diphenyl-1,10-phenanthroline)2((E,E′)-4,4′-Bis[p-methoxystyryl]-2,2′-bipyridine)][PF6]2]	66	20.6	26.4	0.9 ± 0.2	18.5 ± 1	0.027				
[Ru(bipy)2((E,E′)-4,4′-Bis[p-(N,N-methoxy)styryl]-2,2′-bipyridine)][PF6]2 [Compound 7]	75	>9.5	>7.4	10.5 ± 1.7	> 100	0.028	behave normally, without signs of pain, stress or discomfort	drastically shrank until they were nearly eradicated	did not show any significant effect	strongest phototoxic effect
CN(C)c1ccc(/C=C/c2ccnc(-c3cc(/C=C/c4ccc(N(C)C)cc4)ccn3)c2)cc1.CN(C)c1ccc(/C=C/c2ccnc(-c3cc(/C=C/c4ccc(N(C)C)cc4)ccn3)c2)cc1.F[P-](F)(F)(F)(F)F.F[P-](F)(F)(F)(F)F.[Ru+2].c1ccc(-c2ccccn2)nc1 [Compound 4, [Ru(bipy)((E,E′)-4,4′-Bis[p-(N,N-dimethylamino)styryl]-2,2′-bipyridine)2][PF6]2]	34	>7.0	>5.3	14.3 ± 2.4	> 100	0.004				
CN(C)c1ccc(/C=C/c2ccnc(-c3cc(/C=C/c4ccc(N(C)C)cc4)ccn3)c2)cc1.F[P-](F)(F)(F)(F)F.F[P-](F)(F)(F)(F)F.[Ru+2].c1ccc(-c2ccnc3c2ccc2c(-c4ccccc4)ccnc23)cc1.c1ccc(-c2ccnc3c2ccc2c(-c4ccccc4)ccnc23)cc1 [Compound 10, [Ru(4,7-Diphenyl-1,10-phenanthroline)2((E,E′)-4,4′-Bis[p-(N,N-dimethylamino)styryl]-2,2′-bipyridine)][PF6]2]	51	7.6	6.5	1.8 ± 0.3	13.7 ± 1.1	0.006				
CN(C)c1ccc(/C=C/c2ccnc(-c3cc(/C=C/c4ccc(N(C)C)cc4)ccn3)c2)cc1.F[P-](F)(F)(F)(F)F.F[P-](F)(F)(F)(F)F.[Ru+2].c1cnc2c(c1)ccc1cccnc12.c1cnc2c(c1)ccc1cccnc12 [Compound 8, [Ru(phen)2((E,E′)-4,4′-Bis[p-(N,N-dimethylamino)styryl]-2,2′-bipyridine)][PF6]2]	59	>8.5	>7.5	11.7 ± 1.5	> 100	0.004				
COc1ccc(/C=C/c2ccnc(-c3cc(/C=C/c4ccc(OC)cc4)ccn3)c2)cc1.F[P-](F)(F)(F)(F)F.F[P-](F)(F)(F)(F)F.[Ru+2].c1cnc2c(c1)ccc1cccnc12.c1cnc2c(c1)ccc1cccnc12 [Compound 9, [Ru(phen)2((E,E′)-4,4′-Bis[p-methoxystyryl]-2,2′-bipyridine)][PF6]2]	75	>40.0	>47.6	2.5 ± 0.9	> 100	0.019				
COc1ccc(/C=C/c2ccnc(-c3cc(/C=C/c4ccc(OC)cc4)ccn3)c2)cc1.COc1ccc(/C=C/c2ccnc(-c3cc(/C=C/c4ccc(OC)cc4)ccn3)c2)cc1.F[P-](F)(F)(F)(F)F.F[P-](F)(F)(F)(F)F.[Ru+2].c1ccc(-c2ccccn2)nc1 [Compound 5, [Ru(bipy)((E,E′)-4,4′-Bis[p-methoxystyryl]-2,2′-bipyridine)2][PF6]2]	54	>6.5	>5.6	15.3 ± 2.2	> 100	0.014				
